A word on the IC50: it is the concentration that inhibits the measured activity by half.

The experiment concerns the target T1, 1-deoxy-D-xylulose 5-phosphate reductoisomerase (Escherichia coli (strain K12), UniProt P45568).
T1 sequence (P45568 whole entry): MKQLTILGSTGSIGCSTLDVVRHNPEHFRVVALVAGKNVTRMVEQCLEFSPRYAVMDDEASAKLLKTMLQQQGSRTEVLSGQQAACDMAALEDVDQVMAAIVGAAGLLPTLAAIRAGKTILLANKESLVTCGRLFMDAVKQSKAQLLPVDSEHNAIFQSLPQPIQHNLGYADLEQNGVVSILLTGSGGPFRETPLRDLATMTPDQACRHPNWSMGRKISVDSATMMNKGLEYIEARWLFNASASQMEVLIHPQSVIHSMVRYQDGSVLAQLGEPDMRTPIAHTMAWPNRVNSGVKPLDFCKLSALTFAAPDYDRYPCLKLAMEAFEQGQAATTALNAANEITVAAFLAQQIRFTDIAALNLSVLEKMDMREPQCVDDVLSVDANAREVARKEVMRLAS
Description: DXR Inhibition Assay. The procedure: H-DXR was pre-incubated during 2 min in the presence of the inhibitors at different concentrations and DXP (480 µM). NADPH (160 µM final concentration) was then added to measure the residual activity. The flavonoids are poorly soluble in water. Flavonoids solutions at different concentrations were prepared in DMSO by serial dilutions from 100 mM stock solutions. […] The inhibition mechanism of myricetin was studied by preincubating H-DXR with DXP at varied concentrations (96 480 µM) and fixed concentrations of myricetin (0.5, 1 and 2 µM). The enzymatic reaction was initiated by NADPH (final concentration160 µM). Fosmidomycin was used as a positive reference.
`O=c1c(O)c(-c2cc(O)c(O)c(O)c2)oc2cc(O)cc(O)c12`: the IC50 stood at 1500 nM. For the compound `O=c1cc(-c2ccccc2)oc2cc(O)c(O)c(O)c12`, the IC50 is 2200 nM.

With `O=c1cc(-c2ccc(O)c(O)c2)oc2cc(O)cc(O)c12` [2-(3,4-dihydroxyphenyl)-5,7-dihydroxy-4H-chromen-4-one], the 50% inhibitory concentration (IC50) was 3400 nM. Take `O=c1c(O)c(-c2ccc(O)c(O)c2)oc2cc(O)cc(O)c12` [2-(3,4-dihydroxyphenyl)-3,5,7-trihydroxy-chromone;hydrate]: the IC50 amounted to 1900 nM. As for `O=c1c(O)c(-c2ccc(O)c(O)c2)oc2cc(O)ccc12` [2-(3,4-dihydroxyphenyl)-3,7-dihydroxy-chromen-4-one], the IC50 came out at 3500 nM.

Values taken from BindingDB's records for doi:10.1016/j.bioorg.2015.02.008 (University of Strasburg, 2015).
